Experimental data reported in US8329699B2, “Pyrrolopyrazine kinase inhibitors” (Hoffmann-La Roche Inc., priority 2010, dated 2012).

How the values were obtained:
[1] = molecular target: T1, JAK3: Recombinant human kinase domain (h-jak3-sf21-c) (Homo sapiens, UniProt P52333); assay: Determination of IC50 of Janus Kinase (JAK) inhibition, JAK3 (radioactive end-point assay with 33P-ATP); type: biochemical; settings: ATP 1.5 uM, peptide 50 uM, 20 minutes, room temperature
T1 construct: JAK3: Recombinant human kinase domain from Millipore (Cat # 14-629) or prepared; purchased Millipore 14-629
Description: Determination of IC50 of Janus Kinase (JAK) Inhibition:
Enzymes and peptide substrate used are described below: • JAK1: Recombinant human kinase domain from Invitrogen (Cat # PV4774) • JAK3: Recombinant human kinase domain from Millipore (Cat # 14-629) or prepared. • JAK2: Recombinant human kinase domain from Millipore (Cat # 14-640) • Substrate: N-terminally biotinylated 14-mer peptide derived from activation loop of JAK1 with sequence of the peptide substrate: Biotin-[…]
Assay conditions used are described below: • Assay Buffer: JAK Kinase Buffer: 50 mM Hepes [pH 7.2], 10 mM MgCl2, 1 mM DTT, 1 mg/mL BSA. The assay is carried out in this buffer. • Assay Format The kinase activity of all three JAK kinases is measured using a radioactive, end-point assay and with trace amounts of^33P-ATP. The assays are carried out in 96-well polypropylene plates. Experimental Method:
All concentrations are final in the reaction mixture and all incubations are carried at room temperature. Assay steps are described below: • 1) Compounds are serially diluted in 100% DMSO typically at a 10× starting concentration of 1 mM. Final concentration of DMSO in the reaction is 10%. • 2) Compounds are preincubated with enzyme (0.5 nM JAK3 (commercially available), 0.2 nM JAK3 (prepared), 1 nM JAK2, 5 nM JAK1) for 10 minutes. • 3) Reactions are initiated by the addition of a cocktail of the two substrates (ATP and peptide premixed in the JAK Kinase Buffer). In the JAK2/JAK3 assays, ATP and the peptide are used at concentrations of 1.5 uM and 50 uM, respectively. JAK1 assay is carried out at an ATP concentration of 10 uM and a peptide concentration of 50 uM. • 4) The duration of the assay for JAK2 and JAK3 is 20 minutes. JAK1 assay is carried out for 40 minutes. With all three enzymes, reactions are terminated by the addition of 0.5M EDTA to a final concentration of 100 mM. • 5) 25 ul of terminated reactions are transferred to 150 ul of a 7.5% (v/v) slurry of streptavidin-coated sepharose beads in MgCl2- and CaCl2-free 1× Phosphate Buffered Saline containing 50 mM of EDTA in 96-well, 1.2 um MultiScreen-BV filter plates. • 6) After a 30-minute incubation, the beads are washed under vacuum with the following buffers: • a. 3 to 4 washes with 200 ul of 2M NaCl. • b. 3 to 4 washes with 200 ul of 2M NaCl plus 1% (v/v) phosphoric acid. • c. 1 wash with water. • 7) Washed plates are dried in a 60° C. oven for between 1 to 2 hours. • 8) 70 ul of Microscint 20 scintillation fluid is added to each well of filter plates and after at least 30 minutes of incubation, radioactive counts are measured in a Perkinelmer microplate scintillation counter.

T1 sequence (P52333 822-1111 limits assumed): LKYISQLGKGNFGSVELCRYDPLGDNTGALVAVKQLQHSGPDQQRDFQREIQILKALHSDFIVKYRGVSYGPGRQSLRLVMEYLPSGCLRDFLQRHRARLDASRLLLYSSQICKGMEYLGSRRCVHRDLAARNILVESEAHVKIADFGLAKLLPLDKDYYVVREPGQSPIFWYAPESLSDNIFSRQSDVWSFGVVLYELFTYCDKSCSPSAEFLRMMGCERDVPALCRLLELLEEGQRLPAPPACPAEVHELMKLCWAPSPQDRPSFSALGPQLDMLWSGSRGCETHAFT

SMILES	melting point	IC50 [1]
CC(C)(O)C1(NC(=O)c2c[nH]c3ncc(C4CC4)nc23)CCC1 [Compound I-13, 2-Cyclopropyl-5H-pyrrolo[2,3-b]pyrazine-7-carboxylic acid [1-(1-hydroxy-1-methyl-ethyl)-cyclobutyl]-amide]	264 to 266 °C	42.7 nM
CC(C)S(=O)(=O)N1CCCC(NC(=O)c2c[nH]c3ncc(C4CC4)nc23)C1 (centres unmarked) [Compound I-29, 2-Cyclopropyl-5H-pyrrolo[2,3-b]pyrazine-7-carboxylic acid [1-(propane-2-sulfonyl)-piperidin-3-yl]-amide]	255 to 258 °C	73.2 nM
O=C(NC1CCCCC1)c1c[nH]c2ncc(C3CC3)nc12 [Compound I-22, 2-Cyclopropyl-5H-pyrrolo[2,3-b]pyrazine-7-carboxylic acid cyclohexylamide]	> 300 °C	5.2 nM
O=C(NC1CCOCC1)c1c[nH]c2ncc(C3CC3)nc12 [Compound I-1, 2-Cyclopropyl-5H-pyrrolo[2,3-b]pyrazine-7-carboxylic acid (tetrahydro-pyran-4-yl)-amide]	> 300 °C	42 nM
C[C@]1(O)CCC[C@@H]1NC(=O)c1c[nH]c2ncc(C3CC3)nc12 (relative stereo) [Compound I-11, 2-Cyclopropyl-5H-pyrrolo[2,3-b]pyrazine-7-carboxylic acid ((trans)-2-hydroxy-2-methyl-cyclopentyl)-amide]	260 to 262 °C	12.9 nM
CCCS(=O)(=O)N1CCCC(NC(=O)c2c[nH]c3ncc(C4CC4)nc23)C1 (centres unmarked) [Compound I-28, 2-Cyclopropyl-5H-pyrrolo[2,3-b]pyrazine-7-carboxylic acid [1-(propane-1-sulfonyl)-piperidin-3-yl]-amide]	228 to 230 °C	22 nM
O=C(NC1CCCCC1)c1c[nH]c2ncc(Oc3ccccc3)nc12 [Compound I-33, 2-Phenoxy-5H-pyrrolo[2,3-b]pyrazine-7-carboxylic acid cyclohexylamide]	255 to 257 °C	153 nM
O=C(NC1CCCOC1)c1c[nH]c2ncc(C3CC3)nc12 (centres unmarked) [Compound I-6, 2-Cyclopropyl-5H-pyrrolo[2,3-b]pyrazine-7-carboxylic acid (tetrahydro-pyran-3-yl)-amide]	> 300 °C	15.6 nM
N#C[C@@H]1CCC[C@@H]1NC(=O)c1c[nH]c2ncc(C3CC3)nc12 (relative stereo) [Compound I-25, 2-Cyclopropyl-5H-pyrrolo[2,3-b]pyrazine-7-carboxylic acid ((cis)-2-cyano-cyclopentyl)-amide]	> 300 °C	10 nM
O=C(NC1CCCC1)c1c[nH]c2ncc(C3CC3)nc12 [Compound I-23, 2-Cyclopropyl-5H-pyrrolo[2,3-b]pyrazine-7-carboxylic acid cyclopentylamide]	> 300 °C	13.3 nM
CC(=O)N1CCCC(NC(=O)c2c[nH]c3ncc(C4CC4)nc23)C1 (centres unmarked) [Compound I-38, 2-Cyclopropyl-5H-pyrrolo[2,3-b]pyrazine-7-carboxylic acid (1-acetyl-piperidin-3-yl)-amide]	215 to 218 °C	74.2 nM
CC1(C)CCCCC1NC(=O)c1c[nH]c2ncc(C3CC3)nc12 (centres unmarked) [Compound I-32, 2-Cyclopropyl-5H-pyrrolo[2,3-b]pyrazine-7-carboxylic acid (2,2-dimethyl-cyclohexyl)-amide]	295 to 297 °C	1.1 nM
CCS(=O)(=O)N1CCCC(NC(=O)c2c[nH]c3ncc(C4CC4)nc23)C1 (centres unmarked) [Compound I-27, 2-Cyclopropyl-5H-pyrrolo[2,3-b]pyrazine-7-carboxylic acid (1-ethanesulfonyl-piperidin-3-yl)-amide]	266 to 269 °C	17.3 nM
CC1(C)COCC1NC(=O)c1c[nH]c2ncc(C3CC3)nc12 (centres unmarked) [Compound I-16, 2-Cyclopropyl-5H-pyrrolo[2,3-b]pyrazine-7-carboxylic acid (4,4-dimethyl-tetrahydro-furan-3-yl)-amide]	> 300 °C	9.8 nM
CC(=O)N1CCC(NC(=O)c2c[nH]c3ncc(C4CC4)nc23)C1 (centres unmarked) [Compound I-37, 2-Cyclopropyl-5H-pyrrolo[2,3-b]pyrazine-7-carboxylic acid (1-acetyl-pyrrolidin-3-yl)-amide]	242 to 245 °C	120 nM
Cc1ccc(C#N)cc1NC(=O)c1c[nH]c2ncc(C3CC3)nc12 [Compound I-9, 2-Cyclopropyl-5H-pyrrolo[2,3-b]pyrazine-7-carboxylic acid (5-cyano-2-methyl-phenyl)-amide]	280 to 284 °C	157 nM
